How the values were obtained:
[1] = system: Horse weed (Conyza Canadensis L.); assay: Herbicidal spectrum, foliar spraying; type: in vivo; conditions: foliar spray 5 mg/mL
Source text: (§1) All weed, sedge and crop seedlings were planted in 8 cm×8 cm×7.2 cm or 10 cm×10 cm×9 cm plastic pots. Seedlings including pigweed (Amaranthus retroflexus, L.), barnyard grass (Echinochloa crusgalli L.), bindweed (Convolvulus arvensis L.), crabgrass (Digitaria sanguinalis L.), dandelion (Taraxacum officinale F.), lambsquarters (Chenopodium album L.), bluegrass (Poa annua L.), wild mustard (Brassica kaber L.), black nightshade (Solanum nigrum L.), curly dock (Rumex crispus L.), horseweed (Conyza Canadensis L.), sweet corn (Zea may S.) and wheat PR 1404 (Triticum aestivum L.) were planted in Super Soil potting soil. Seedlings including rice M-104 (Oryza saliva L.), sedge (Cyperus difformis L.) and sprangletop (Leptochloa fascicularis Lam) were planted in mud which was collected from rice field (Woodland, Calif., USA). When treated, all seedlings were 15 days old except for rice (10 days), wheat (20 days), corn (20 days) sprangletop (20 days old), sedge (20 days old) and horse weed (70 days old).
(§2) Herbicidal activity of the active compound and synthesized compounds was evaluated by foliar spraying. Spraying carrier solution contained 2% ethanol, 0.2% glycosperse O-20 and 0.1% sodium lauryl sulfate. Freshly made solution with the evaluated compound at a concentration of 5 mg/mL was used. In the spectrum study, spraying volume was dependent on the foliar surface area, ranging from approximately 1 to 3 mL/pot plants. One or two pots of plants were treated for each. Number of pots was dependent on both foliar area and availability. In the structure-activity relationship study, one pot of barnyard grass was used and the spraying volume of each compound was 3 mL of 5 mg/mL.
(§3) The optimal concentration of sarmentine was 5 mg/mL for excellent control of barnyard grass (Figure 2). Therefore, such a concentration was subjected to herbicidal spectrum study. Due to the hydrophobic property of sarmentine, a carrier solution containing 0.2% glycosperse O-20, 2% ethanol and 0.1% sodium lauryl sulfate was used. Although this solution contains a high concentration of surfactants, sarmentine can stay suspended in this solution no more than 15 min. Therefore, sarmentine was made freshly just before spraying.

[2] = system: Sedge (Cyperus difformis L.); assay: Herbicidal spectrum, foliar spraying; type: in vivo; conditions: foliar spray 5 mg/mL
Source text: as §1, §2, §3

Bluegrass (Poa annua L.) = assay: Herbicidal spectrum, foliar spraying; type: in vivo; conditions: foliar spray 5 mg/mL
Source text: as §1, §2, §3

[3] = system: Bindweed (Convolvulus arvensis, L.); assay: Herbicidal spectrum, foliar spraying; type: in vivo; conditions: foliar spray 5 mg/mL
Source text: as §1, §2, §3

[4] = system: Curly dock (Rumex crispus L.); assay: Herbicidal spectrum, foliar spraying; type: in vivo; conditions: foliar spray 5 mg/mL
Source text: as §1, §2, §3

[5] = system: Black nightshade (Solanum nigrum L.); assay: Herbicidal spectrum, foliar spraying; type: in vivo; conditions: foliar spray 5 mg/mL
Source text: as §1, §2, §3

[6] = system: Crabgrass (Digitaria sanguinalis L.); assay: Herbicidal spectrum, foliar spraying; type: in vivo; conditions: foliar spray 5 mg/mL
Source text: as §1, §2, §3

[7] = system: Wild mustard (Brassica kaber L.); assay: Herbicidal spectrum, foliar spraying; type: in vivo; conditions: foliar spray 5 mg/mL
Source text: as §1, §2, §3

[8] = system: Wheat (PR 1404) (Triticum aestivum L.); assay: Herbicidal spectrum, foliar spraying; type: in vivo; conditions: foliar spray 5 mg/mL
Source text: as §1, §2, §3

[9] = system: Pigweed (Amaranthus retroflexus, L.); assay: Herbicidal spectrum, foliar spraying; type: in vivo; conditions: foliar spray 5 mg/mL
Source text: as §1, §2, §3

Sweet corn (Zea mays S.) = assay: Herbicidal spectrum, foliar spraying; type: in vivo; conditions: foliar spray 5 mg/mL
Source text: as §1, §2, §3

[10] = system: Dandelion (Taraxacum officinale F.); assay: Herbicidal spectrum, foliar spraying; type: in vivo; conditions: foliar spray 5 mg/mL
Source text: as §1, §2, §3

[11] = system: Sprangletop (Leptochloa fascicularis Lam.); assay: Herbicidal spectrum, foliar spraying; type: in vivo; conditions: foliar spray 5 mg/mL
Source text: as §1, §2, §3

[12] = system: Lambsquarters (Chenopodium album L.); assay: Herbicidal spectrum, foliar spraying; type: in vivo; conditions: foliar spray 5 mg/mL
Source text: as §1, §2, §3

[13] = system: Rice (M 104) (Oryza saliva L); assay: Herbicidal spectrum, foliar spraying; type: in vivo; conditions: foliar spray 5 mg/mL
Source text: as §1, §2, §3

[14] = Suspension of sarmentine in spraying carrier solution; type: physicochemical; conditions: 0.2% glycosperse O-20, 2% ethanol and 0.1% sodium lauryl sulfate
Experimental: as §3

[15] = system: Barnyard grass (Echinochloa crusgalli L.); assay: Herbicidal activity, foliar spraying (spectrum and SAR study); type: in vivo
Source text: as §1, §2, §3

plants = assay: Symptom of phytotoxic activity after spraying; type: in vivo; conditions: sarmentine solution
Experimental: as §2
Sarmentine is a contact phytotoxic compound. When plants were treated with sarmentine solution, slightly black tiny spots would first show on the leaves and then became bigger and bigger until they covered the whole leaves, especially obvious on the barnyard grass. […] This symptom was observed very similarly to that of middle-chain fatty acids such as decanoic acid (21, Table 4) and 2E-decenoic acid (22, Table 3) during the SAR study.

[16] = 20 days old, 1 to 3 mL/pot, at least 3 days after spraying
[17] = 15 days old, 1 to 3 mL/pot, at least 3 days after spraying

## CCCCC/C=C/C=C/C(=O)N1CCCC1 [sarmentine, N-(2E,4E-Decadienoyl) pyrrolidine]
[1]; horse weed, 70 days old, 1 to 3 mL/pot, at least 3 days after spraying
  Efficacy of phytotoxic activity: II (II (<20%))
[1]; horseweed (70-day-old)
  Phytotoxic activity (in words): Slightly phytotoxic activity
[2]; [16]
  Efficacy of phytotoxic activity: III (III (20-40%))
[2]
  Phytotoxic activity (in words): Slightly phytotoxic activity
Bluegrass (Poa annua L.); blue grass
  Phytotoxic activity (in words): highly phytotoxic activity
Bluegrass (Poa annua L.); bluegrass, 15 days old, 1 to 3 mL/pot, at least 3 days after spraying
  Efficacy of phytotoxic activity: VI (VI (80-100%))
[3]; [17]
  Efficacy of phytotoxic activity: VI (VI (80-100%))
[3]
  Phytotoxic activity (in words): highly phytotoxic activity
[4]; [17]
  Efficacy of phytotoxic activity: VI (VI (80-100%))
[4]
  Phytotoxic activity (in words): highly phytotoxic activity
[5]; [17]
  Efficacy of phytotoxic activity: VI (VI (80-100%))
[5]
  Phytotoxic activity (in words): highly phytotoxic activity
[6]; [17]
  Efficacy of phytotoxic activity: VI (VI (80-100%))
[6]
  Phytotoxic activity (in words): highly phytotoxic activity
[7]; [17]
  Efficacy of phytotoxic activity: VI (VI (80-100%))
[7]
  Phytotoxic activity (in words): highly phytotoxic activity
[8]; wheat PR 1404, 20 days old, 1 to 3 mL/pot, at least 3 days after spraying
  Efficacy of phytotoxic activity: VI (VI (80-100%))
[8]; wheat
  Phytotoxic activity (in words): highly phytotoxic activity
[9]; [17]
  Efficacy of phytotoxic activity: VI (VI (80-100%))
[9]
  Phytotoxic activity (in words): highly phytotoxic activity
Sweet corn (Zea mays S.); [16]
  Efficacy of phytotoxic activity: VI (VI (80-100%))
Sweet corn (Zea mays S.)
  Phytotoxic activity (in words): highly phytotoxic activity
[10]; [17]
  Efficacy of phytotoxic activity: VI (VI (80-100%))
[10]
  Phytotoxic activity (in words): highly phytotoxic activity
[11]; [16]
  Efficacy of phytotoxic activity: VI (VI (80-100%))
[11]
  Phytotoxic activity (in words): highly phytotoxic activity
[12]; [17]
  Efficacy of phytotoxic activity: VI (VI (80-100%))
[12]
  Phytotoxic activity (in words): highly phytotoxic activity
[13]; rice M-104, 10 days old, 1 to 3 mL/pot, at least 3 days after spraying
  Efficacy of phytotoxic activity: I
[13]; rice plants, after 10 days
  Phytotoxic activity (in words): No visible phytotoxic activity
[14]
  Time sarmentine can stay suspended in carrier solution: no more than 15 min
[15]; Echinochloa crus-galli, 72 h, read-out: Efficacy of phytotoxic activity, spectrum study, barnyard grass, 15 days old, foliar spray 5 mg/mL, 1 to 3 mL/pot, at least 3 days after spraying
  pest or weed control at 5000 µg/mL: 80 to 100%
[15]; SAR study, one pot of barnyard grass, foliar spray 3 mL of 5 mg/mL, at least 3 days after spraying
  Efficacy of phytotoxic activity: VI (VI (80-100%))
[15]; foliar spraying, Figure 2
  Optimal concentration for excellent control of barnyard grass: 5 mg/mL
[15]; spectrum study, barnyard grass, foliar spray 5 mg/mL
  Phytotoxic activity (in words): highly phytotoxic activity
plants
  Time after spraying within which predominant phytotoxic activity happened: ≤ 48 h

— patent publication US8957000B2, “Use of sarmentine and its analogs for controlling plant pests” (Marrone Bio Innovations, Inc., priority 2009, dated 2015)
